Consider five molecules from patent publication US20190055279A1, “NOVEL POLYPEPTIDES WITH IMPROVED PROTEOLYTIC STABILITY, AND METHODS OF PREPARING AND USING SAME” (TUFTS UNIVERSITY, priority 2015, published 2019).

Data set [1] addresses T1, FAP (Homo sapiens, UniProt Q12884).
T1 sequence (Q12884 1-760): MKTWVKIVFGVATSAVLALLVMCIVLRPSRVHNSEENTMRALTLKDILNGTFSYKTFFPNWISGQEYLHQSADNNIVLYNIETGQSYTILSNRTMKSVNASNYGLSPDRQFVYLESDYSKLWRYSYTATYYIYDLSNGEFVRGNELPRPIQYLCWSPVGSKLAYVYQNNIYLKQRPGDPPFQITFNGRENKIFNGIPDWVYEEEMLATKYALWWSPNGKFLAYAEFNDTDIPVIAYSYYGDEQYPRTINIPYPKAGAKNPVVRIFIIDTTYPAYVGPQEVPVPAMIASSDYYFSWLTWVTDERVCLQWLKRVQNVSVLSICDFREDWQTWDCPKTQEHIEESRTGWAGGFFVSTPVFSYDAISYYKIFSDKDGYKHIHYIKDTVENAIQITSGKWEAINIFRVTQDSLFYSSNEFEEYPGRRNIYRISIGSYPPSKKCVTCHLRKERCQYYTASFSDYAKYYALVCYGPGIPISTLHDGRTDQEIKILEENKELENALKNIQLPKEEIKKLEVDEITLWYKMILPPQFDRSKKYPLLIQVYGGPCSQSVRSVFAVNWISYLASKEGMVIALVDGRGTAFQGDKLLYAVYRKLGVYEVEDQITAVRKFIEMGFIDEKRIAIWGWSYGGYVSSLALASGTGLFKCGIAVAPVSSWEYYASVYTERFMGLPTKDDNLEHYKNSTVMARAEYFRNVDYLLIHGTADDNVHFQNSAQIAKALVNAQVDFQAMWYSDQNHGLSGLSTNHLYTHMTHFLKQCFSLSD

The target in data set [2] is T2, DPP2 (Homo sapiens, UniProt Q9UHL4).
Data set [3] has as its target T1, FAP. Description: Stability assay with or without FAP, read out by receptor bioassay (FIG. 9A, FIG. 18). The note with it: incubated with or without FAP.
Data set [4] addresses T2, DPP2. The experiment in a line: Stability assay with or without DPP2, read out by receptor bioassay (FIG. 9A). The note with it: incubated with or without DPP2.
For data set [5] the following is noted: cited from earlier work.
In data set [6] the target is T3, DPP4 (Homo sapiens, UniProt P27487). The experiment in a line: DPP4 degradation of GLP-2 peptides: incubation with recombinant DPP4, then GLP-2R reporter assay. (Reporter assays use an easily measured gene product as a stand-in for the process of interest.)
Description: (§1) Peptides were incubated with vehicle or recombinant DPP4. Serial dilutions of GLP2-1 and GLP2-4 were then applied to HEK293 cells, which had been transfected with cDNA encoding human GLP-2R and a cAMP-responsive reporter gene.
(§2) Peptides were incubated with recombinant DPP4. Serial dilutions of GLP-2 and GLP2-4 were then applied to HEK293 cells, which had been transfected with cDNA encoding human GLP-2R and a cAMP-responsive reporter gene. […] N=4, mean+SEM.
(§3) DPP4 resistance (FIG. 13): Lipidated peptides are compared with the prototype, F-GLP2-palm. After an overnight incubation (16 hrs) in the presence vs. the absence of DPP4, receptor mediated function is assessed as shown elsewhere herein. As a DPP4 susceptible control, parallel experiments are done using GLP-2. […] Following overnight preincubation, serial dilutions of ligands were prepared and added to GLP-2R expressing cells for 4 hours. A luciferase reporter gene assay was used to monitor Gαs coupled second messenger signaling.
Data set [7] addresses T3, DPP4.
Description: as §1, §2, §3
In another data set the test system is SBS patients. The note with it: after 52 weeks of treatment; cited from earlier work.
The subject of the next data set is wild type mice. The note with it: GLP-2 twice daily over ten days; GATTEX daily; cited from earlier work.
Data set [8] addresses T3, DPP4. Description: Sensitivity to DPP4: overnight incubation with recombinant DPP4 or vehicle, then receptor agonist bioassay. Particulars: overnight incubation with or without DPP4, readout at cognate receptor. On the procedure: Plotting concentration versus the luciferase activity yielded quantitative parameters for combined binding (potency) and signaling (efficacy) in a single step. […] DPP4 treated peptides: 10 μl of 0.26 mM peptide were incubated with 2 μL DPP4 in buffer ±DMSO for 18 hrs. Control peptides: 10 μl of 0.26 mM peptide was added to buffer ±DMSO. The final DMSO concentration was the same for all peptides and all peptides were diluted to 0.26 mM concentrations for the DPP4 assay.
Compounds are incubated overnight at 37° C. in the presence of recombinant DPP4 or vehicle (TRIS buffer). The samples are then assessed in GLP-1R agonist assays.
Compounds were incubated overnight at 37° C. in the presence of recombinant DPP4 or vehicle (TRIS buffer, pH 8.0). The samples were then assessed in GLP1R agonist assays as described elsewhere herein.

Values joined by “and” are separate entries in the source; they are usually repeats but may differ in a detail not shown here. Equal values may be shown once. Read-outs that look alike come from different tables or passages of the source. Some results are limits rather than exact numbers.

T3 sequence (P27487 whole entry, species assumed): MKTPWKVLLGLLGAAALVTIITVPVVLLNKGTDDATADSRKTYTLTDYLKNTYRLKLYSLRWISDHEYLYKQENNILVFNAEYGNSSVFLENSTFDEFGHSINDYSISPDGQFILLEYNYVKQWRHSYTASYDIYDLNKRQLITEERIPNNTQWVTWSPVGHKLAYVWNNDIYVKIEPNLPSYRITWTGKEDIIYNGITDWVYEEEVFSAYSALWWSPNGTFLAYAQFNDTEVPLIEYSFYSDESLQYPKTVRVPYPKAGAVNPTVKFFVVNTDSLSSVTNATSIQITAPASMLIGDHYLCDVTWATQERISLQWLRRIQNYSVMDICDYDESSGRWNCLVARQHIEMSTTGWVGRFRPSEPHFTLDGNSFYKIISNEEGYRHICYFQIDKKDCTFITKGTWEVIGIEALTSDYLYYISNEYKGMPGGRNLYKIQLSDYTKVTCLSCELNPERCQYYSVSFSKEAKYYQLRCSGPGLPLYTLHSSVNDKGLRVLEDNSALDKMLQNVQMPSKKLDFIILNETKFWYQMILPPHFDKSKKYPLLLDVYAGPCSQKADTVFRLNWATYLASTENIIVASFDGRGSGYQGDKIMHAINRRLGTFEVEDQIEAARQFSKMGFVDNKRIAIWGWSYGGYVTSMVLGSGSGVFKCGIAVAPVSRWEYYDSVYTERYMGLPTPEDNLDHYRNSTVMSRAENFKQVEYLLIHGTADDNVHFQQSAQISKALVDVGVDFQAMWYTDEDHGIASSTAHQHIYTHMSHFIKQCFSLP

Take `CC[C@H](C)[C@H](NC(=O)[C@H](CO)NC(=O)[C@H](Cc1ccc(O)cc1)NC(=O)[C@H](CC(=O)O)NC(=O)[C@H](CO)NC(=O)[C@@H](NC(=O)[C@H](Cc1ccccc1)NC(=O)[C@@H](NC(=O)CNC(=O)[C@H](CCC(=O)O)NC(=O)[C@H](C)NC(=O)[C@@H](N)Cc1ccc(O)cc1)[C@@H](C)O)[C@@H](C)CC)C(=O)N[C@@H](C)C(=O)N[C@@H](CCSC)C(=O)N[C@@H](CC(=O)O)C(=O)N[C@@H](CCCCN)C(=O)N[C@H](C(=O)N[C@@H](Cc1c[nH]cn1)C(=O)N[C@@H](CCC(N)=O)C(=O)N[C@@H](CCC(N)=O)C(=O)N[C@@H](CC(=O)O)C(=O)N[C@@H](Cc1ccccc1)C(=O)N[C@H](C(=O)N[C@@H](CC(N)=O)C(=O)N[C@@H](Cc1c[nH]c2ccccc12)C(=O)N[C@@H](CC(C)C)C(=O)N[C@@H](CC(C)C)C(=O)N[C@@H](C)C(=O)N[C@@H](CCC(N)=O)C(=O)N[C@@H](CCCCN)C(=O)NCC(=O)N[C@@H](CCCCN)C(=O)N[C@@H](CCCCN)C(=O)N[C@@H](CC(N)=O)C(=O)N[C@@H](CC(=O)O)C(=O)N[C@@H](Cc1c[nH]c2ccccc12)C(=O)N[C@@H](CCCCN)C(=O)N[C@@H](Cc1c[nH]cn1)C(=O)N[C@@H](CC(N)=O)C(=O)N[C@H](C(=O)N[C@H](C(=O)N[C@@H](CCC(N)=O)C(=O)O)[C@@H](C)O)[C@@H](C)CC)C(C)C)[C@@H](C)CC` [GIP, Gastric Inhibitory Polypeptide]: the “stability to FAP (in words)” value on FAP [1] is “major potency losses”. Besides, the “stability to DPP2 (in words)” value on DPP2 [2] is listed as “major potency losses”.
For `CC[C@H](C)[C@H](NC(=O)[C@H](Cc1ccccc1)NC(=O)[C@H](CCC(=O)O)NC(=O)[C@H](CCCCN)NC(=O)[C@H](C)NC(=O)[C@H](C)NC(=O)[C@H](CCC(N)=O)NC(=O)CNC(=O)[C@H](CCC(=O)O)NC(=O)[C@H](CC(C)C)NC(=O)[C@H](Cc1ccc(O)cc1)NC(=O)[C@H](CO)NC(=O)[C@H](CO)NC(=O)[C@@H](NC(=O)[C@H](CC(=O)O)NC(=O)[C@H](CO)NC(=O)[C@@H](NC(=O)[C@H](Cc1ccccc1)NC(=O)[C@@H](NC(=O)CNC(=O)[C@H](CCC(=O)O)NC(=O)[C@H](C)NC(=O)[C@@H](N)Cc1c[nH]cn1)[C@@H](C)O)[C@@H](C)O)C(C)C)C(=O)N[C@@H](C)C(=O)N[C@@H](Cc1c[nH]c2ccccc12)C(=O)N[C@@H](CC(C)C)C(=O)N[C@H](C(=O)N[C@@H](CCCCN)C(=O)NCC(=O)N[C@@H](CCCNC(=N)N)C(N)=O)C(C)C` [GLP-1, glucagon-like peptide-1, reference compound], at FAP [3], the “stability to FAP (in words)” value is reported as “major potency losses”. Further, on DPP2 [4], the “stability to DPP2 (in words)” value is “major potency losses”.
With `CC[C@H](C)[C@H](NC(=O)[C@H](Cc1ccccc1)NC(=O)[C@H](CC(=O)O)NC(=O)[C@H](CCCN=C(N)N)NC(=O)[C@H](C)NC(=O)[C@H](C)NC(=O)[C@H](CC(C)C)NC(=O)[C@H](CC(N)=O)NC(=O)[C@H](CC(=O)O)NC(=O)[C@H](CC(C)C)NC(=O)[C@@H](NC(=O)[C@@H](NC(=O)[C@H](CC(N)=O)NC(=O)[C@H](CCSC)NC(=O)[C@H](CCC(=O)O)NC(=O)[C@H](CC(=O)O)NC(=O)[C@H](CO)NC(=O)[C@H](Cc1ccccc1)NC(=O)[C@H](CO)NC(=O)CNC(=O)[C@H](CC(=O)O)NC(=O)[C@H](C)NC(=O)[C@@H](N)Cc1cnc[nH]1)[C@@H](C)O)[C@@H](C)CC)C(=O)N[C@@H](CC(N)=O)C(=O)N[C@@H](Cc1c[nH]c2ccccc12)C(=O)N[C@@H](CC(C)C)C(=O)N[C@H](C(=O)N[C@@H](CCC(N)=O)C(=O)N[C@H](C(=O)N[C@@H](CCCCN)C(=O)N[C@H](C(=O)N[C@H](C(=O)N[C@@H](CC(=O)O)C(=O)O)[C@@H](C)O)[C@@H](C)CC)[C@@H](C)O)[C@@H](C)CC` [GLP-2, glucagon-like peptide-2, reference compound], the half-life in vivo in data set [5] was 7 min. For the same molecule, the “DPP4 degradation / resistance (in words)” value on DPP4 [6] (GLP-2R readout) is on record as “degraded by DPP4”. For the same molecule, at DPP4 [6] (GLP-2R readout, N=4), the “loss in potency induced by DPP4” value is on record as more than 40 fold. Also, the “peptide degraded by DPP4” value at DPP4 [6] (inferred from potency loss) was > 97% and ~97%.
`CC[C@H](C)[C@H](NC(=O)[C@H](Cc1ccccc1)NC(=O)[C@H](CC(=O)O)NC(=O)[C@H](CCCNC(=N)N)NC(=O)[C@H](C)NC(=O)[C@H](C)NC(=O)[C@H](CC(C)C)NC(=O)[C@H](CC(N)=O)NC(=O)[C@H](CC(=O)O)NC(=O)[C@H](CC(C)C)NC(=O)[C@@H](NC(=O)[C@@H](NC(=O)[C@H](CC(N)=O)NC(=O)[C@H](CCSC)NC(=O)[C@H](CCC(=O)O)NC(=O)[C@H](CC(=O)O)NC(=O)[C@H](CO)NC(=O)[C@H](Cc1ccccc1)NC(=O)[C@H](CO)NC(=O)CNC(=O)[C@H](CC(=O)O)NC(=O)CNC(=O)[C@@H](N)Cc1c[nH]cn1)[C@@H](C)O)[C@@H](C)CC)C(=O)N[C@@H](CC(N)=O)C(=O)N[C@@H](Cc1c[nH]c2ccccc12)C(=O)N[C@@H](CC(C)C)C(=O)N[C@H](C(=O)N[C@@H](CCC(N)=O)C(=O)N[C@H](C(=O)N[C@@H](CCCCN)C(=O)N[C@H](C(=O)N[C@H](C(=O)N[C@@H](CC(=O)O)C(=O)O)[C@@H](C)O)[C@@H](C)CC)[C@@H](C)O)[C@@H](C)CC` [Gattex, teduglutide]: the “DPP4 degradation / resistance (in words)” value on DPP4 [7] is on record as “only partial DPP4 resistance”. Moreover, the in vivo half-life in data set [5] is approximately 3 h. In the data set with SBS patients, the “SBS patients able to reduce their PN regimen by at least 1 day/week” value is 68%, the “patients who failed to reduce their PN regimen by even 1 day/week” value is given as 32% and the “treated patients entirely independent of PN” value is given as 4 of 52. Also, the bowel weight result in the data set on wild type mice is “significant increase in both large and small bowel weights”.
As for `CC[C@H](C)[C@H](NC(=O)[C@H](CO)NC(=O)[C@H](Cc1ccc(O)cc1)NC(=O)[C@H](CC(=O)O)NC(=O)[C@H](CO)NC(=O)[C@@H](NC(=O)[C@H](Cc1ccccc1)NC(=O)[C@@H](NC(=O)CNC(=O)[C@H](CCC(=O)O)NC(=O)[C@H](C)NC(=O)[C@H](Cc1ccc(O)cc1)NCC(F)(F)F)[C@@H](C)O)[C@@H](C)CC)C(=O)N[C@@H](C)C(=O)N[C@@H](CCSC)C(=O)N[C@@H](CC(=O)O)C(=O)N[C@@H](CCCCN)C(=O)N[C@H](C(=O)N[C@@H](Cc1c[nH]cn1)C(=O)N[C@@H](CCC(N)=O)C(=O)N[C@@H](CCC(N)=O)C(=O)N[C@@H](CC(=O)O)C(=O)N[C@@H](Cc1ccccc1)C(=O)N[C@H](C(=O)N[C@@H](CC(N)=O)C(=O)N[C@@H](Cc1c[nH]c2ccccc12)C(=O)N[C@@H](CC(C)C)C(=O)N[C@@H](CC(C)C)C(=O)N[C@@H](C)C(=O)N[C@@H](CCC(N)=O)C(=O)N[C@@H](CCCCN)C(=O)NCC(=O)N[C@@H](CCCCN)C(=O)N[C@@H](CCCCN)C(=O)N[C@@H](CC(N)=O)C(=O)N[C@@H](CC(=O)O)C(=O)N[C@@H](Cc1c[nH]c2ccccc12)C(=O)N[C@@H](CCCCN)C(=O)N[C@@H](Cc1c[nH]cn1)C(=O)N[C@@H](CC(N)=O)C(=O)N[C@H](C(=O)N[C@H](C(=O)N[C@@H](CCC(N)=O)C(=O)O)[C@@H](C)O)[C@@H](C)CC)C(C)C)[C@@H](C)CC` [I-4], the “DPP4 degradation / resistance (in words)” value on DPP4 [8] is listed as “resistant”; at DPP4 [8] (listed as I4), “stable”. Also, the “stability to FAP (in words)” value on FAP [3] is reported as “stable”. The “stability to DPP2 (in words)” value at DPP2 [4] is recorded as “stable”.
